Laboratory results published in EP0527889B1, “QUINOLIZINONE TYPE COMPOUNDS” (priority 1990, dated 1991).
Values after ≈ are worked out from the molar mass of the structure shown.

Legend:
Assay in all cases: In vitro antibacterial activity, MIC by agar dilution
Type in all cases: cell-based
Conditions in all cases: BHI agar, 35-37°C, 20-24 hours, unit assumed
[1] = tested on: Staphylococcus aureus NCTC 10649
Method: (§1) Each plate was inoculated with 1:100 (or 1:10 for slow growing strains, primarily Micrococcus and Streptococcus) dilutions of up to 32 different microorganisms, using a Steers replicator block calibrated to deliver approximately 10^4 colony forming units (CFUs). The inoculated plates were incubated at from about 35°C to about 37°C for approximately 20-24 hours. In addition, a control plate using BHI agar containing no test compound was prepared and incubated at the beginning and at the end of each test. Ciprofloxacin was used as the control antibiotic.
(§2) The MIC was defined as the lowest concentration of test compound yielding no growth (a slight haze or sparsely isolated colonies at the inoculum spot) as compared to the growth control containing no test compound.

[2] = tested on: Staphylococcus aureus A-5278
Method: as §1, §2

[3] = tested on: Acinetobacter calcoaceticus CMX 669
Method: as §1, §2

[4] = tested on: Pseudomonas aeruginosa 2862
Method: as §1, §2

[5] = tested on: Escherichia coli SS
Method: as §1, §2

[6] = tested on: Streptococcus pyrogenes CONST
Method: as §1, §2

[7] = tested on: Staphylococcus epidermidis 3519
Method: as §1, §2

[8] = tested on: Staphylococcus aureus CMX 553
Method: as §1, §2

[9] = tested on: Pseudomonas aeruginosa 5263
Method: as §1, §2

[10] = tested on: Streptococcus agalactaciae CMX 508
Method: as §1, §2

[11] = tested on: Providencia stuartii CMX 640
Method: as §1, §2

[12] = tested on: Streptococcus bovis A5169
Method: as §1, §2

[13] = tested on: Staphylococcus aureus 1775
Method: as §1, §2

[14] = tested on: Escherichia coli H560
Method: as §1, §2

[15] = tested on: Streptococcus pyrogenes EES61
Method: as §1, §2

[16] = tested on: Pseudomonas aeruginosa K799/WT
Method: as §1, §2

[17] = tested on: Streptococcus pyrogenes 2548 INDUC
Method: as §1, §2

[18] = tested on: Enterococcus faecium ATCC 8043
Method: as §1, §2

[19] = tested on: Micrococcus luteus ATCC 9341
Method: as §1, §2

[20] = tested on: Staphylococcus aureus ATCC 6538P
Method: as §1, §2

[21] = tested on: Escherichia coli JUHL
Method: as §1, §2

[22] = tested on: Pseudomonas aeruginosa K799/61
Method: as §1, §2

[23] = tested on: Escherichia coli KNK 437
Method: as §1, §2

[24] = tested on: Pseudomonas cepacia 296I
Method: as §1, §2

[25] = tested on: Pseudomonas aeruginosa A5007
Method: as §1, §2

[26] = tested on: Staphylococcus aureus A5177
Method: as §1, §2

[27] = tested on: Staphylococcus aureus 642A
Method: as §1, §2

[28] = tested on: Pseudomonas aeruginosa BMH10
Method: as §1, §2

[29] = tested on: Escherichia coli DC-2
Method: as §1, §2

[30] = tested on: Klebsiella pneumoniae ATCC 8045
Method: as §1, §2

[31] = tested on: Enterobacter aerogenes ATCC 13048
Method: as §1, §2

[32] = tested on: Micrococcus luteus ATCC 4698
Method: as §1, §2

Row | SMILES | MIC values [1] [µg/mL] | MIC values [2] [µg/mL] | MIC values [3] [µg/mL] | MIC values [4] [µg/mL] | MIC values [5] [µg/mL] | MIC values [6] [µg/mL] | MIC values [7] [µg/mL] | MIC values [8] [µg/mL] | MIC values [9] [µg/mL] | MIC values [10] [µg/mL] | MIC values [11] [µg/mL] | MIC values [12] [µg/mL] | MIC values [13] [µg/mL] | MIC values [14] [µg/mL] | MIC values [15] [µg/mL] | MIC values [16] [µg/mL] | MIC values [17] [µg/mL] | MIC values [18] [µg/mL] | MIC values [19] [µg/mL] | MIC values [20] [µg/mL] | also measured
1 | CC(C)(C)OC(=O)NC1CCN(c2nc3c(-c4ccc(F)cc4F)cc(C(=O)O)c(=O)n3cc2F)C1 (centres unmarked) [Example 160, 2-(3-(N-t-butoxycarbonyl)aminopyrrolidin-1-yl)-9-(2,4-difluorophenyl)-3-fluoro-6H-6-oxopyrido[1,2-a]pyrimidine-7-carboxylic acid] | 0.2 (≈ 0.396 µM) | 0.2 (≈ 0.396 µM) | 3.1 (≈ 6.15 µM) | > 100 | 0.005 (≈ 0.00991 µM) | 1.56 (≈ 3.09 µM) | 0.39 (≈ 0.773 µM) | 0.39 (≈ 0.773 µM) | > 100 | 1.56 (≈ 3.09 µM) | > 100 | 6.2 (≈ 12.3 µM) | 100 (≈ 198 µM) | 3.1 (≈ 6.15 µM) | 1.56 (≈ 3.09 µM) | 12.5 (≈ 24.8 µM) | 0.78 (≈ 1.55 µM) | 3.1 (≈ 6.15 µM) | 6.2 (≈ 12.3 µM) | 0.2 (≈ 0.396 µM) | MIC values [21]: 0.39 µg/mL (≈ 0.773 µM); MIC values [22]: 3.1 µg/mL (≈ 6.15 µM); MIC values [23]: 25 µg/mL (≈ 49.6 µM); MIC values [24]: > 100 µg/mL; MIC values [25]: 25 µg/mL (≈ 49.6 µM); MIC values [26]: 0.39 µg/mL (≈ 0.773 µM); MIC values [27]: 0.2 µg/mL (≈ 0.396 µM); MIC values [28]: 12.5 µg/mL (≈ 24.8 µM); MIC values [29]: 25 µg/mL (≈ 49.6 µM); MIC values [30]: 1.56 µg/mL (≈ 3.09 µM); MIC values [31]: 12.5 µg/mL (≈ 24.8 µM); MIC values [32]: 0.78 µg/mL (≈ 1.55 µM)
2 | NC1CCN(c2nc3c(-c4ccc(F)cc4F)cc(C(=O)O)c(=O)n3cc2F)C1 (centres unmarked) [Example 161, 2-(3-Aminopyrrolidin-1-yl)-9-(2,4-difluorophenyl)-3-fluoro-6H-6-oxopyrido[1,2-a]pyrimidine-7-carboxylic acid] | 0.05 (≈ 0.124 µM) | 0.1 (≈ 0.247 µM) | 0.05 (≈ 0.124 µM) | 100 (≈ 247 µM) | 0.005 (≈ 0.0124 µM) | 0.39 (≈ 0.965 µM) | 0.1 (≈ 0.247 µM) | 0.1 (≈ 0.247 µM) | 100 (≈ 247 µM) | 0.39 (≈ 0.965 µM) | 1.56 (≈ 3.86 µM) | 1.56 (≈ 3.86 µM) | 100 (≈ 247 µM) | 0.02 (≈ 0.0495 µM) | 0.39 (≈ 0.965 µM) | 0.2 (≈ 0.495 µM) | 0.1 (≈ 0.247 µM) | 0.78 (≈ 1.93 µM) | 3.1 (≈ 7.67 µM) | 0.05 (≈ 0.124 µM) | MIC values [21]: 0.02 µg/mL (≈ 0.0495 µM); MIC values [22]: 0.05 µg/mL (≈ 0.124 µM); MIC values [23]: 0.2 µg/mL (≈ 0.495 µM); MIC values [24]: 3.1 µg/mL (≈ 7.67 µM); MIC values [25]: 0.2 µg/mL (≈ 0.495 µM); MIC values [26]: 0.1 µg/mL (≈ 0.247 µM); MIC values [27]: 0.1 µg/mL (≈ 0.247 µM); MIC values [28]: 0.2 µg/mL (≈ 0.495 µM); MIC values [29]: 0.2 µg/mL (≈ 0.495 µM); MIC values [30]: 0.01 µg/mL (≈ 0.0247 µM); MIC values [31]: 0.05 µg/mL (≈ 0.124 µM); MIC values [32]: 3.1 µg/mL (≈ 7.67 µM)
3 | O=C(O)c1cc(-c2ccc(F)cc2F)c2nc(N3CCC(O)C3)c(F)cn2c1=O (centres unmarked) [Example 170, 9-(2,4-Difluorophenyl)-3-fluoro-2-(3-hydroxypyrrolidin-1-yl)-6H-6-oxopyrido[1,2-a]pyrimidine-7-carboxylic acid] | 0.05 (≈ 0.123 µM) | 0.1 (≈ 0.247 µM) | 0.2 (≈ 0.493 µM) | > 100 | 0.001 (≈ 0.00247 µM) | 0.78 (≈ 1.92 µM) | 0.2 (≈ 0.493 µM) | 0.2 (≈ 0.493 µM) | > 100 | 0.78 (≈ 1.92 µM) | 6.2 (≈ 15.3 µM) | 6.2 (≈ 15.3 µM) | 100 (≈ 247 µM) | 0.1 (≈ 0.247 µM) | 0.78 (≈ 1.92 µM) | 0.78 (≈ 1.92 µM) | 0.39 (≈ 0.962 µM) | 0.78 (≈ 1.92 µM) | 12.5 (≈ 30.8 µM) | 0.05 (≈ 0.123 µM) | MIC values [22]: 0.05 µg/mL (≈ 0.123 µM); MIC values [23]: 1.56 µg/mL (≈ 3.85 µM); MIC values [24]: 6.2 µg/mL (≈ 15.3 µM); MIC values [25]: 0.78 µg/mL (≈ 1.92 µM); MIC values [26]: 0.1 µg/mL (≈ 0.247 µM); MIC values [27]: 0.1 µg/mL (≈ 0.247 µM); MIC values [28]: 0.78 µg/mL (≈ 1.92 µM); MIC values [29]: 3.1 µg/mL (≈ 7.65 µM); MIC values [30]: 0.05 µg/mL (≈ 0.123 µM); MIC values [31]: 0.39 µg/mL (≈ 0.962 µM); MIC values [32]: 1.56 µg/mL (≈ 3.85 µM)
